Values of other authors, collected in patent US20040229940A1, “Analeptic and antidepressant combinations” (Cephalon Inc, priority 2003, published 2004).

Assays:
[1] = system: rats; settings: rats (Touret et al., 1995; Edgar and Seidel, 1997)
[2] = system: cats; settings: cats (Lin et al., 1992)
[3] = system: canines; settings: canines (Shelton et al., 1995)
[4] = system: non-human primates; settings: non-human primates (Hernant et al, 1991)
[5] = system: English bulldog sleep disordered breathing model; settings: sleep apnea model, English bulldog (Panckeri et al, 1996)
[6] = system: narcoleptic canine; settings: narcolepsy model, narcoleptic canine (Shelton et al, 1995)
[7] = system: major depressive disorder; settings: at 6 weeks

Compound | wakefulness [1] | wakefulness [2] | wakefulness [3] | wakefulness [4] | wakefulness [5] | wakefulness [6] | response [7]
NC(=O)C[S+]([O-])C(c1ccccc1)c1ccccc1 (stereo not shown) [Modafinil, 2-(benzhydrylsulfinyl) acetamide] | promotes wakefulness | promotes wakefulness | promotes wakefulness | promotes wakefulness | promotes wakefulness | promotes wakefulness | 
CNCCC(Oc1ccc(C(F)(F)F)cc1)c1ccccc1 (stereo not shown) [fluoxetine] |  |  |  |  |  |  | about 50%
